Data as given in patent US5478809A, “TAN-1511, its derivatives, production and use thereof” (Takeda Chemical Industries, Ltd., priority 1992, dated 1995).
*1 amine or outer side, *2 acyl side, *3 side chain or, on linkers, in order; H or OH if unused. Where a SMILES comes first, the peptide text is derived from it. [ ]: non-standard residue; d: D form. The star is where a group is joined. Dhc(Pam)2 = S-[2,3-bis(hexadecanoyloxy)-(2S)-propyl]-(R)-cysteine, CCCCCCCCCCCCCCCC(=O)OC[C@@H](CSC[C@H](N[*:1])C(=O)[*:2])OC(=O)CCCCCCCCCCCCCCC; Propyl(2R-PamO,3-PamO) = CCCCCCCCCCCCCCCC(=O)OC[C@H](C*)OC(=O)CCCCCCCCCCCCCCC; Palmitoyl = CCCCCCCCCCCCCCCC(=O)*; Myristoyl = CCCCCCCCCCCCCC(=O)*

How the values were obtained:
mice = test: acute toxicity test to mice; assay type: in vivo, mouse; details: intraperitoneal administration, dose of 400 mg/kg
Procedure: No mouse administered intraperitoneally with Pam-Dhc(Pam)2 -Gly-Gly-Gly-Glu-Thr-Thr-OH (Compound 1) (SEQ ID No. 89) at a dose of 400 mg/kg was found dead.

[1] = tested on: peritoneal cavity cells of mice; test: number of peritoneal cavity cells in cyclophosphamide-treated mice (Experimental Example 2); assay type: in vivo, BALB/c mouse; details: cyclophosphamide singly, 250 mg/kg i.p.; saline/2% gum arabic mice = 100%
Procedure: (§1) A BALB/c mouse was injected intraperitoneally with cyclophosphamide dissolved in physiological saline solution at a dose of 250 mg/kg. From the next day, the animal was administered intraperitoneally for 3 consecutive days with TAN-1511 complex suspended in physiological saline solution containing 2% gum arabic at a dose of 2 mg/kg/day. On the day following completion of the administration, number of trypan blue chromophobic cells of spleen and peritoneal cavity was counted.

spleen cells of mice [2] = test: number of spleen cells in cyclophosphamide-treated mice (Experimental Example 4); assay type: in vivo, BALB/c mouse; details: cyclophosphamide singly, 200 mg/kg i.p.; saline/2% gum arabic mouse = 100%
Procedure: as §1, with “200” for “250”, “day after next,” for “next day,”, “4” for “3”, “the test compound” for “TAN-1511 complex”, “arabic.” for “arabic at a dose of 2 mg/kg/day.”, “spleen” for “spleen and peritoneal cavity”

spleen cells of mice [3] = test: number of spleen cells in cyclophosphamide-treated mice (Experimental Example 2); assay type: in vivo, BALB/c mouse; details: cyclophosphamide singly, 250 mg/kg i.p.; saline/2% gum arabic mice = 100%
Procedure: as §1

[4] = tested on: leukocytes of peripheral blood; test: enhancing the number of leukocytes in cyclophosphamide-treated mice; assay type: in vivo, CDF1/Crj mice; details: cyclophosphamide 150 mg/kg orally, then 5% glucose s.c. for 5 days; mice without cyclophosphamide = 100%
Procedure: Six week old female CDF1/Crj mice (5animals/group) were subjected to the experiment. […] From the next day, each animal was administered subcutaneously with the compound suspended in 5% glucose at the following dosages for five days once a day. On the next day after completion of the administration, about 100 μl of peripheral blood was collected from orbital vein using an EDTA-treated glass capillary. Then, the number of leukocytes was counted using a automatic cell analyzer (Sysmex K-2000, Toa Medical Electronics, Japan)

Row | Compound | mice found dead / killed (mice) | Number of peritoneal cavity cells (%) [1] [%] | Number of abdominal cavity cells (%) (spleen cells of mice [2]) | Number of spleen cells (%) (spleen cells of mice [3]) | average value and standard deviation of leukocyte numbers [4] [%]
1 | CCCCCCCCCCCCCCCC(=O)OC[C@H](CSC[C@H](NC(=O)CCCCCCCCCCCCC)C(=O)NCC(=O)NCC(=O)NCC(=O)N[C@@H](CCC(=O)O)C(=O)N[C@H](C(=O)N[C@H](C(=O)O)[C@@H](C)O)[C@@H](C)O)OC(=O)CCCCCCCCCCCCCCC [Compound 9, (2R,6R)-2-Myr-amino-6,7-bis(PamO)-4-THT-Gly-Gly-Gly-Glu-Thr-Thr-OH] (Myristoyl-C(Propyl(2R-PamO,3-PamO))GGGETT-OH) | No mouse was killed |  |  |  | 
2 | O=P1(N(CCCl)CCCl)NCCCO1 (stereo not drawn) [Cyclophosphamide] |  | 27.7 | 33.4 | 11.8 | 41±11
3 | Pam-Dhc(Pam)2 -Gly-Gly-Gly-Glu-Thr-Thr-OH (Palmitoyl-[Dhc(Pam)2]GGGETT-OH; SMILES CCCCCCCCCCCCCCCC(=O)N[C@@H](CSC[C@H](COC(=O)CCCCCCCCCCCCCCC)OC(=O)CCCCCCCCCCCCCCC)C(=O)NCC(=O)NCC(=O)NCC(=O)N[C@@H](CCC(=O)O)C(=O)N[C@H](C(=O)N[C@H](C(=O)O)[C@@H](C)O)[C@@H](C)O) [Compound 1] | No mouse |  |  |  | 
